From patent US9006250B2, “4-amino-6-(heterocyclic)picolinates and 6-amino-2-(heterocyclic)pyrimidine-4-carboxylates and their use as herbicides” (Dow AgroSciences, LLC, priority 2013, dated 2015)

What was measured:
Assay in all cases: Post-Emergent Test I herbicidal activity
Format in all cases: in vivo
Conditions in all cases: 4 Kg ai/ha
[1] = test system: HELAN: sunflower (Helianthus annuus)
Description: (§1) Post-Emergent Test I: Seeds test species were obtained from commercial suppliers and planted into a 5″-round pot containing soil-less media mix (Metro-Mix 360®, Sun Gro Horticulture). Postemergence treatments were planted 8-12 days (d) prior to application and cultured in a greenhouse equipped with supplemental light sources to provide a 16 hour (h) photoperiod at 24-29° C. All pots were surface irrigated. Approximately 10 milligrams (mg) of each compound were dissolved in 1.3 mL acetone-DMSO (97:3, v/v) and diluted with 4.1 mL water-isopropanol-crop oil concentrate (78:20:2, v/v/v) containing 0.02% Triton X-155. Treatments were serial diluted with the above formulation solvent to provide 1.85, 0.926, 0.462 and 0.231 mg/mL of test compound delivered in 2.7 mL/pot (roughly equivalent to 4.0, 2.0, 1.0, and 0.5 kg/ha, respectively). Formulated compounds were applied using a DeVilbiss® compressed air sprayer at 2-4 pounds per square inch (psi). Following treatment, pots were returned to the greenhouse for the duration of the experiment. All pots were sub-irrigated as need to provide optimum growing conditions. All pots were fertilized one time per week by subirrigating with Peters Peat-Lite Special® fertilizer (20-10-20). Phytotoxicity ratings were obtained 10 days after treatment postemergence applications. All evaluations were made visually on a scale of 0 to 100 where 0 represents no activity and 100 represents complete plant death. Visual assessments of plant injury were made based on growth reduction, discoloration, leaf deformity and necrosis.

[2] = test system: SETFA: giant foxtail (Setaria faberi)
Description: as §1

[3] = test system: AVEFA: wild oats (Avena fatua)
Description: as §1

[4] = test system: IPOHE: ivyleaf morningglory (Ipomoea hederecea)
Description: as §1

[5] = test system: ECHCG: barnyardgrass (Echinochloa crus-galli)
Description: as §1

COC(=O)c1nc(-c2cc3nonc3cc2F)nc(N)c1OC [Compound 10, Methyl 6-amino-2-(6-fluorobenzo[c][1,2,5]oxadiazol-5-yl)-5-methoxypyrimidine-4-carboxylate]
C (75-84): Visual Growth Reduction (%) 10 Days After Application HELAN [1] | Visual Growth Reduction (%) 10 Days After Application SETFA [2] | Visual Growth Reduction (%) 10 Days After Application AVEFA [3] | Visual Growth Reduction (%) 10 Days After Application IPOHE [4] | Visual Growth Reduction (%) 10 Days After Application ECHCG [5]
